Test results as given in patent publication US10730863B2, “Bridged bicyclic compounds as farnesoid X receptor modulators” (BRISTOL-MYERS SQUIBB COMPANY, priority 2017, dated 2020).

These compounds were tested against T1, FXR (Homo sapiens (Human), UniProt Q96RI1) (assay: FXR EC50 (FXR agonist activity reported with each example)). Details: not given.
Assay type: cell-based

T1 sequence (Q96RI1 262-486): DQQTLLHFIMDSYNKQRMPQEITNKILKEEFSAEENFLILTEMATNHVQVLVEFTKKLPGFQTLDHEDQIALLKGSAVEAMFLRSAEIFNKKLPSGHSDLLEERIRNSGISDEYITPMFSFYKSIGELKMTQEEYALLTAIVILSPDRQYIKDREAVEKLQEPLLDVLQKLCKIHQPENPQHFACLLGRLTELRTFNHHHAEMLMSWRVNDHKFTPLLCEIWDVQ

Compound | EC50
COC(=O)c1ccc(NC(=O)C23CCC(COCc4c(-c5c(Cl)cccc5Cl)noc4C4CC4)(CC2)CC3)c(Cl)c1 [Intermediate 170A, methyl 3-chloro-4-(4-(((5-cyclopropyl-3-(2,6-dichlorophenyl)isoxazol-4-yl)methoxy)methyl)bicyclo[2.2.2]octane-1-carboxamido)benzoate] | 2400 nM
COC(=O)c1ccc(C23CCC(CNc4c(-c5c(Cl)cccc5Cl)noc4C4CC4)(CC2)CO3)cc1 [Intermediate 203A, methyl 4-(4-(((5-cyclopropyl-3-(2,6-dichlorophenyl)isoxazol-4-yl)amino)methyl)-2-oxabicyclo[2.2.2]octan-1-yl)benzoate] | 2800 nM
COC(=O)c1ccc(-c2noc(C34CCC(C=Cc5c(-c6c(Cl)cccc6Cl)noc5C5CC5)(CC3)C4)n2)cc1 [Intermediate 226C, methyl 4-(5-(4-(2-(5-cyclopropyl-3-(2,6-dichlorophenyl)isoxazol-4-yl)vinyl)bicyclo[2.2.1]heptan-1-yl)-1,2,4-oxadiazol-3-yl)benzoate] | 2500 nM

The compounds below were run against T1, FXR (assay: transient human FXR/Gal4-luciferase reporter assay). Details: Gal4-hFXR LBD fusion in HEK293 reporter cells; relative to 8 μM GW-4064.
Assay type: cell-based
Method: The exemplified compounds of the present invention were tested in the transient human FXR/Gal4-luciferase reporter assay, and assay results were described in the EXAMPLES section hereinbefore.
A Gal4-hFXR fusion construct reporter system was used as the primary assay to characterize compound activity. A construct including 5 copies of the Gal4 promoter response element upstream of a firefly luciferase reporter cDNA was stably expressed in HEK293 cells. This reporter cell line was maintained in Dulbecco's Modified Eagle's medium (DMEM; Gibco) supplemented with 1% penicillin-streptomycin (P/S) solution, 500 μg/ml Zeocin and 10% charcoal/dextran-treated fetal bovine serum (cs-FBS) at 37° C. in a humidified 5% CO2 atmosphere. Another plasmid was constructed in which the human cytomegalovirus promoter in the pcDNA3.1 vector directs the expression of the cDNA encoding a fusion protein comprised of the DNA binding domain from the Gal4 transcription factor fused to the ligand binding domain from human FXR.
The day prior to transfection, the reporter cells in culture are detached from the plate with trypsin and plated into a T75 flask at a sufficient density to achieve approximately 90% confluence the next morning. The transfection reagents are prepared by separately diluting 25 μg of the pcDNA3.1-Gal4-FXR plasmid into 1.87 mL of Opti-MEM (Thermo-Fisher), and 40 μL of Lipofectamine 2000 (Thermo-Fisher) into 1.87 mL of Opti-MEM, and then adding the diluted DNA solution into the diluted Lipofectamine 2000 solution and incubating at room temperature for 15-20 minutes. The mixture is further diluted with 10 mL of a solution comprised of DMEM, 10% cs-FBS, and 1% P/S immediately prior to transferring to the cells. The maintenance culture media is aspirated from the cells and the final transfection mixture is added before the cells are incubated overnight at 37° C. in a humidified 5% CO2 atmosphere. This protocol can be scaled up, and the transiently transfected cells can be cryopreserved in an assay-ready format.
For compound testing, 100 nL of the compounds (serial dilutions in DMSO) are dispensed with an Echo acoustic dispenser (Labcyte) into the wells of a Corning/Costar clear bottom 384-well white plate. The transfected cells are harvested, counted, and diluted such that 10-25,000 cells in 25 μL are plated into each well of the 384-well compound assay plate. The compound-treated cells are incubated overnight at 37° C. in a humidified 5% CO2 atmosphere. The next morning 25 μL of Steady-Glo (Promega) are added to each well of the plate, the mixture is incubated for 15 min. with shaking, and luminescence is measured on an Envision (Perkin Elmer) plate reader. Background counts from cells treated with DMSO alone are subtracted from all raw counts, and the corrected values are converted to a percentage of the control response attained with 8 μM GW-4064.

Compound | EC50
CCc1cc(OCC23CCC(OCc4c(-c5c(Cl)cncc5Cl)noc4C4CC4)(CC2)CC3)nn1CC(=O)O [Example 524] | 1500 nM
O=C(O)c1cccc(COCC23CCC(OCc4c(-c5c(Cl)cncc5Cl)noc4C4CC4)(CC2)CC3)c1 [Example 525] | 167 nM
Cn1nc(C(=O)O)cc1OCC12CCC(OCc3c(-c4c(Cl)cncc4Cl)noc3C3CC3)(CC1)CC2 [Example 526] | 296 nM
O=C(O)c1cc(C(F)(F)F)cc(COCC23CCC(OCc4c(-c5c(Cl)cncc5Cl)noc4C4CC4)(CC2)CC3)n1 [Example 527] | 86 nM
O=C(O)c1cc(OCC23CCC(OCc4c(-c5c(Cl)cncc5Cl)noc4C4CC4)(CC2)CC3)nn1CC1CC1 [Example 528] | 16 nM
CCc1nc(C(=O)O)cc2ccc(OCC34CCC(OCc5c(-c6c(Cl)cncc6Cl)noc5C5CC5)(CC3)CC4)cc12 [Example 529] | 9 nM
CCn1nc(OCC23CCC(OCc4c(-c5c(Cl)cncc5Cl)noc4C4CC4)(CC2)CC3)c(C)c1C(=O)O [Example 530] | 219 nM
Cc1c(OCC23CCC(OCc4c(-c5c(Cl)cncc5Cl)noc4C4CC4)(CC2)CC3)nn(C(C)C)c1C(=O)O [Example 531] | 138 nM
Cc1c(OCC23CCC(OCc4c(-c5c(Cl)cncc5Cl)noc4C4CC4)(CC2)CC3)nn(CC2CC2)c1C(=O)O [Example 532] | 148 nM
Cc1c(OCC23CCC(OCc4c(-c5c(Cl)cncc5Cl)noc4C4CC4)(CC2)CC3)nn(CC2COC2)c1C(=O)O [Example 533] | 1910 nM
Cc1c(OCC23CCC(OCc4c(-c5c(Cl)cncc5Cl)noc4C4CC4)(CC2)CC3)nn(C)c1C(=O)O [Example 534] | 248 nM
O=C(O)c1c(F)c(OCC23CCC(OCc4c(-c5c(Cl)cncc5Cl)noc4C4CC4)(CC2)CC3)nn1CC1CC1 [Example 535] | 50 nM
CC(F)(F)c1cc(OCC23CCC(OCc4c(-c5c(Cl)cncc5Cl)noc4C4CC4)(CC2)CC3)cnc1C(=O)O [Example 536] | 55 nM
CCn1nc(C(=O)O)cc1OCC12CCC(OCc3c(-c4c(Cl)cncc4Cl)noc3C3CC3)(CC1)CC2 [Example 537] | 79 nM
O=C(O)c1ccn2cc(OCC34CCC(OCc5c(-c6c(Cl)cncc6Cl)noc5C5CC5)(CC3)CC4)nc2c1 [Example 538] | 90 nM
O=C(O)c1cc(OCC23CCC(OCc4c(-c5c(Cl)cncc5Cl)noc4C4CC4)(CC2)CC3)nn1C1CC1 [Example 539] | 25 nM
CCn1nc(C(=O)O)c(F)c1OCC12CCC(OCc3c(-c4c(Cl)cncc4Cl)noc3C3CC3)(CC1)CC2 [Example 540] | 345 nM
O=C(O)c1cc(OCC23CCC(OCc4c(-c5c(Cl)cncc5Cl)noc4C4CC4)(CC2)CC3)n(C2CC2)n1 [Example 541] | 59 nM
O=C(O)c1cnc(C#CC23CCC(OCc4c(-c5c(Cl)cncc5Cl)noc4C4CC4)(CC2)CC3)cn1 [Example 542] | 4880 nM
O=C(O)c1cc(N2CCOCC2)c2nc(C34CCC(OCc5c(-c6c(Cl)cncc6Cl)noc5C5CC5)(CC3)CC4)ccc2c1 [Example 543] | 469 nM

Compound | EC50
O=C(O)c1cc(OC2COC2)c2nc(C34CCC(OCc5c(-c6c(Cl)cncc6Cl)noc5C5CC5)(CC3)CC4)ccc2c1 [Example 544] | 118 nM
O=C(O)c1cc(C(F)(F)F)cn2c(C#CC34CCC(OCc5c(-c6c(Cl)cncc6Cl)noc5C5CC5)(CC3)CC4)cnc12 [Example 545] | 5 nM
CCc1cc(C(=O)O)c2ncc(C#CC34CCC(OCc5c(-c6c(Cl)cncc6Cl)noc5C5CC5)(CC3)CC4)n2c1 [Example 546] | 7 nM
O=C(O)c1cc2ccc(Cl)cc2c(C#CC23CCC(OCc4c(-c5c(Cl)cncc5Cl)noc4C4CC4)(CC2)CC3)n1 [Example 547] | 251 nM
O=C(O)c1cc2ccc(C#CC34CCC(OCc5c(-c6c(Cl)cncc6Cl)noc5C5CC5)(CC3)CC4)cc2c(N2CCOCC2)n1 [Example 548] | 13 nM
COCCCOc1nc(C(=O)O)cc2cc(C#CC34CCC(OCc5c(-c6c(Cl)cncc6Cl)noc5C5CC5)(CC3)CC4)ccc12 [Example 549] | 126 nM
O=C(O)c1cc2ccc(C#CC34CCC(OCc5c(-c6c(Cl)cncc6Cl)noc5C5CC5)(CC3)CC4)cc2c(Nc2ccccc2)n1 [Example 550] | 186 nM
O=C(O)c1cc2ccc(C#CC34CCC(OCc5c(-c6c(Cl)cncc6Cl)noc5C5CC5)(CC3)CC4)cc2c(NC2CC2)n1 [Example 551] | 406 nM
O=C(O)c1cc2ccc(C#CC34CCC(OCc5c(-c6c(Cl)cncc6Cl)noc5C5CC5)(CC3)CC4)cc2c(N2CC(O)C2)n1 [Example 552] | 100 nM
O=C(O)c1cc2ccc(C#CC34CCC(OCc5c(-c6c(Cl)cncc6Cl)noc5C5CC5)(CC3)CC4)cc2c(N2CC(F)C2)n1 [Example 553] | 12 nM
O=C(O)COc1ccc(C#CC23CCC(OCc4c(-c5c(Cl)cncc5Cl)noc4C4CC4)(CC2)CC3)c(F)c1 [Example 554] | 3160 nM
O=C(O)c1cc2cc(C#CC34CCC(OCc5c(-c6c(Cl)cncc6Cl)noc5C5CC5)(CC3)CC4)ccc2c(N2CCOCC2)n1 [Example 555] | 87 nM
COCCCOc1cc(C(=O)O)cc2ccc(C34CCC(OCc5c(-c6c(Cl)cncc6Cl)noc5C5CC5)(CC3)CC4)nc12 [Example 556] | 30 nM
O=C(O)c1cc2ccc(C#CC34CCC(OCc5c(-c6c(Cl)cncc6Cl)noc5C5CC5)(CC3)CC4)cc2c(N2CCC(O)C2)n1 (stereo not shown) [Example 557] | 188 nM
O=C(O)c1cc2ccc(C#CC34CCC(OCc5c(-c6c(Cl)cncc6Cl)noc5C5CC5)(CC3)CC4)cc2c(N2CCC(O)CC2)n1 [Example 558] | 20 nM
O=C(O)c1cc2ccc(C#CC34CCC(OCc5c(-c6c(Cl)cncc6Cl)noc5C5CC5)(CC3)CC4)cc2c(N2CCC2)n1 [Example 559] | 20 nM
O=C(O)c1cc(OC2CCOC2)c2nc(C34CCC(OCc5c(-c6c(Cl)cncc6Cl)noc5C5CC5)(CC3)CC4)ccc2c1 (stereo not shown) [Example 560] | 286 nM
O=C(O)COc1cc(C#CC23CCC(OCc4c(-c5c(Cl)cncc5Cl)noc4C4CC4)(CC2)CC3)ccn1 [Example 561] | 779 nM
O=C(O)c1cnc(N2CCC2)c(C#CC23CCC(OCc4c(-c5c(Cl)cncc5Cl)noc4C4CC4)(CC2)CC3)c1 [Example 562] | 21 nM
COc1ncc(C(=O)O)cc1C#CC12CCC(OCc3c(-c4c(Cl)cncc4Cl)noc3C3CC3)(CC1)CC2 [Example 563] | 16 nM
